# Laboratory results: US20250041302A1, “PROLYL HYDROXYLASE DOMAIN INHIBITOR FOR TREATING HEMORRHAGIC OR BURN SHOCK” (THE GOVERNMENT OF THE UNITED STATES, AS REPRESENTED BY THE …, priority 2022, published 2025)
# Entries after “also recorded” stand apart in the source; their conditions may differ.
# Legend:
# [1] = test system: swine model of 40% total burned surface area burn; assay: Porcine burn shock pilot study, 40% total burned surface area contact burn; assay type: in vivo, Juvenile female Yorkshire swine; settings: for BE / HCO3 / Lactate / TCO2 / arterial blood gas pH / pCO2 / pO2 / sO2: 4 Hours after Burn; for Alanine Aminotransferase / Albumin / Alkaline Phosphatase / Amylase / Aspartate Aminotransferase / BUN / Basophils / Bicarbonate / Calculated Osmolality / Cellular Hemoglobin (Optical) / Cellular Hemoglobin Concentration Mean (Optical) / Chloride / Eosinophils / Glucose / Hematocrit / Hemoglobin / Hemoglobin Distribution Width / Large Unstained Cells / Lipase / Lymphocytes / Mean Corpuscular Hemoglobin / Mean Corpuscular Hemoglobin Concentration / Mean Corpuscular Volume / Mean Platelet Volume / Monocytes / Myoglobin / Neutrophils / Platelets / Potassium / Red Blood Cells / Red Cell Distribution Width / Sodium / Total Protein / White Blood Cells / Creatinine: 24 Hours after Burn; for mortalities: n=4, over 48 hours
# Experimental: Using n=12 animals, we performed a pilot study of the effects of HIF-1α pathway activation with MK-8617 on survival time and volume of resuscitation fluid required to maintain urine output over 48 hours in a swine model of 40% total burned surface area mixed deep and partial thickness contact burn. Animals were block randomized into three groups, including control (vehicle only; n=4), low-dose (15 mg; n=4) and high-dose (50 mg; n=4). MK-8617 for injection was dissolved in a 45:5:50 mixture of polyethylene glycol (molecular weight: 400 daltons): dimethylsulfoxide: saline with pH adjusted to 8.4. Juvenile female Yorkshire swine weighing between 35-50 kg underwent open surgical splenectomy, then were allowed to recover for a minimum of two weeks before instrumentation with central venous and arterial lines and experimental burn. Animals received an injection of MK-8617 or vehicle at 30 minutes after burn followed by a standard-of-care crystalloid resuscitation with lactated Ringer's solution starting at 60 minutes after burn-we used a custom-built, fully closed-loop, automated resuscitation system based on the Burn Navigator to deliver goal-directed resuscitation with a target urine output of 30-50 ml/hr. Time to mortality, total fluid volumes infused, urine output generated, and serological measures of organ function were measured. Investigators remained blinded to treatment allocations until after data analysis was complete. Survival was analyzed using a log-rank test followed by a Tukey's studentized range multiple comparisons adjustment. Serological measures were analyzed using a linear model with baseline correction followed by a Tukey-Kramer multiple comparisons adjustment.
# [2] = test system: rats with lethal hemorrhagic shock; assay: Intravenous PHDi in lethal hemorrhagic shock, fixed-volume hemorrhage 65% EBV, FWB at 60 min (FIG. 7-10); assay type: in vivo, Sprague-Dawley rats
# Experimental: For the experiments in this disclosure, fixed-volume hemorrhage (65% estimated blood volume (EBV)) was performed in isoflurane anesthetized Sprague-Dawley rats. In this model, the initial 40% of total volume of hemorrhage was performed by continuous blood draw using syringe pump within first 2 min, followed by manually repeatedly drawing 1.5 ml of whole blood every 2 min at 10 min, and 1 ml of whole blood every 3 min thereafter until achieving the targeted volume of hemorrhage, and thus 40% bleeding occurs within the first 2 minutes (fast hemorrhage), another 40% between 2-10 minutes, and the rest 20% between 10-22 minutes (slow hemorrhage).
# Then, the animals were treated with 500 u L PHDi (MK-8617 at 1 mg/ml, in a dissolvent composed of 5% DMSO, 10% PEG 400, and 85% normal saline, average dose at 1.24±0.07 mg/kg) or vehicle (n=13 each) intravenously at 20 min after hemorrhage. At 60 min after hemorrhage, surviving animals were resuscitated with fresh whole blood (FWB, 20% EBV) using shed blood collected at 2 min after hemorrhage. The 60 min- or 4 hour survivability was analyzed
# For the measurement of metabolites (lactate and HCO3) and ATP, blood samples were harvested at time point 0 (baseline), 20 minutes (prior to PHDi), 60 minutes (prior to fresh whole blood (FWB)), and 240 minutes after polytrauma/hemorrhage.
# [3] = low and high dose versus control
compound,measurement,setting,value
"COc1ccc(C(NC(=O)c2cnc(-c3cccnn3)nc2O)c2ccc(OC)cc2)cc1 [MK-8617, N-[Bis(4-methoxyphenyl)methyl]-4-hydroxy-2-(pyridazin-3-yl)pyrimidine-5-carboxamide]",BE,[1]; High Dose (50 mg),3.75 ± 2.99 mmol/L
same,HCO3,[1]; High Dose (50 mg),28.18 ± 2.44 mmol/L
same,Lactate,[1]; High Dose (50 mg),6.98 ± 3.09 mmol/L
same,TCO2,[1]; High Dose (50 mg),29.50 ± 2.52 mmol/L
same,arterial blood gas pH,[1]; High Dose (50 mg),7.43±0.05
same,pCO2,[1]; High Dose (50 mg),42.25 ± 4.07 mmHg
same,pO2,[1]; High Dose (50 mg),209.00 ± 2.45 mmHg
same,sO2,[1]; High Dose (50 mg),100 ± 0%
same,Alanine Aminotransferase,[1]; High Dose (50 mg),50.00 ± 10.23 U/L
same,Albumin,[1]; High Dose (50 mg),0.55 ± 0.19 g/dL
same,Alkaline Phosphatase,[1]; High Dose (50 mg),159.75 ± 39.11 U/L
same,Amylase,[1]; High Dose (50 mg),58577 ± 41616 U/L
same,Aspartate Aminotransferase,[1]; High Dose (50 mg),98.75 ± 37.56 U/L
same,BUN,[1]; High Dose (50 mg),18.75 ± 1.65 mg/dL
same,Basophils,[1]; High Dose (50 mg),0.13 ± 0.05%
same,Bicarbonate,[1]; High Dose (50 mg),26.90 ± 1.65 mmol/L
same,Calculated Osmolality,[1]; High Dose (50 mg),290.00 ± 9.49
same,Cellular Hemoglobin (Optical),[1]; High Dose (50 mg),16.3 ± 0.66 pg
same,Cellular Hemoglobin Concentration Mean (Optical),[1]; High Dose (50 mg),31.30 ± 0.86 g/dL
same,Chloride,[1]; High Dose (50 mg),108.25 ± 4.99 mmol/L
same,Eosinophils,[1]; High Dose (50 mg),0.18 ± 0.05%
same,Glucose,[1]; High Dose (50 mg),69.50 ± 3.70 mg/dL
same,Hematocrit,[1]; High Dose (50 mg),29.93 ± 2.01%
same,Hemoglobin,[1]; High Dose (50 mg),9.60 ± 0.51 g/dL
same,Hemoglobin Distribution Width,[1]; High Dose (50 mg),1.78 ± 0.15 g/dL
same,Large Unstained Cells,[1]; High Dose (50 mg),0.88 ± 0.17%
same,Lipase,[1]; High Dose (50 mg),155.67 ± 71.84 U/L
same,Lymphocytes,[1]; High Dose (50 mg),38.78 ± 9.52%
same,Mean Corpuscular Hemoglobin,[1]; High Dose (50 mg),16.75 ± 0.60 pg
same,Mean Corpuscular Hemoglobin Concentration,[1]; High Dose (50 mg),32.18 ± 0.59 g/dL
same,Mean Corpuscular Volume,[1]; High Dose (50 mg),52.05 ± 0.97 fL
same,Mean Platelet Volume,[1]; High Dose (50 mg),11.53 ± 1.06 fL
same,Monocytes,[1]; High Dose (50 mg),1.98 ± 0.71%
same,Myoglobin,[1]; High Dose (50 mg),502.50 ± 148.23 ng/mL
same,Neutrophils,[1]; High Dose (50 mg),58.05 ± 9.81%
same,Platelets,[1]; High Dose (50 mg),363 ± 32 10³ cells/µL
same,Potassium,[1]; High Dose (50 mg),4.58 ± 0.85 mmol/L
same,Red Blood Cells,[1]; High Dose (50 mg),5.75 ± 0.47 10^6 cells/μL
same,Red Cell Distribution Width,[1]; High Dose (50 mg),15.55 ± 0.61%
same,Sodium,[1]; High Dose (50 mg),145.50 ± 4.51 mmol/L
same,Total Protein,[1]; High Dose (50 mg),4.38 ± 0.78 g/dL
same,White Blood Cells,[1]; High Dose (50 mg),17.5 ± 4.92 10³ cells/µL
same,Creatinine,"[1]; High Dose (50 mg), adjusted p=0.04 versus low dose",1.53 ± 0.28 mg/dL
same,BE,[1]; Low Dose (15 mg),-3.00 ± 5.48 mmol/L
same,HCO3,[1]; Low Dose (15 mg),22.30 ± 4.08 mmol/L
same,Lactate,[1]; Low Dose (15 mg),11.84 ± 4.55 mmol/L
same,TCO2,[1]; Low Dose (15 mg),23.75 ± 4.11 mmol/L
same,arterial blood gas pH,[1]; Low Dose (15 mg),7.35 ± 0.10
same,pCO2,[1]; Low Dose (15 mg),38.40 ± 5.69 mmHg
same,sO2,[1]; Low Dose (15 mg),100 ± 0%
same,pO2,"[1]; Low Dose (15 mg), adjusted p=0.007 versus control",191.75 ± 14.73 mmHg
same,Alanine Aminotransferase,[1]; Low Dose (15 mg),31.00 ± 36.77 U/L
same,Albumin,[1]; Low Dose (15 mg),0.50 ± 0.00 g/dL
same,Alkaline Phosphatase,[1]; Low Dose (15 mg),201.50 ± 10.61 U/L
same,Amylase,[1]; Low Dose (15 mg),234170 ± 286731 U/L
same,Aspartate Aminotransferase,[1]; Low Dose (15 mg),119.00 ± 80.61 U/L
same,Basophils,[1]; Low Dose (15 mg),0.20 ± 0.00%
same,Bicarbonate,[1]; Low Dose (15 mg),24.95 ± 2.62 mmol/L
same,Calculated Osmolality,[1]; Low Dose (15 mg),291.50 ± 10.61
same,Cellular Hemoglobin (Optical),[1]; Low Dose (15 mg),15.8 ± 0.42 pg
same,Cellular Hemoglobin Concentration Mean (Optical),[1]; Low Dose (15 mg),30.45 ± 0.49 g/dL
same,Chloride,[1]; Low Dose (15 mg),108.50 ± 3.54 mmol/L
same,Creatinine,[1]; Low Dose (15 mg),2.01 ± 0.16 mg/dL
same,Eosinophils,[1]; Low Dose (15 mg),0.40 ± 0.00%
same,Glucose,[1]; Low Dose (15 mg),46.00 ± 26.87 mg/dL
same,Hematocrit,[1]; Low Dose (15 mg),29.35 ± 0.64%
same,Hemoglobin,[1]; Low Dose (15 mg),9.55 ± 0.35 g/dL
same,Hemoglobin Distribution Width,[1]; Low Dose (15 mg),1.74 ± 0.17 g/dL
same,Large Unstained Cells,[1]; Low Dose (15 mg),0.80 ± 0.00%
same,Lipase,[1]; Low Dose (15 mg),19059.00 ± 26899.76 U/L
same,Lymphocytes,[1]; Low Dose (15 mg),37.55 ± 18.46%
same,Mean Corpuscular Hemoglobin,[1]; Low Dose (15 mg),16.85 ± 0.49 pg
same,Mean Corpuscular Hemoglobin Concentration,[1]; Low Dose (15 mg),32.45 ± 0.49 g/dL
same,Mean Corpuscular Volume,[1]; Low Dose (15 mg),52.05 ± 0.78 fL
same,Mean Platelet Volume,[1]; Low Dose (15 mg),14.90 ± 2.69 fL
same,Monocytes,[1]; Low Dose (15 mg),1.05 ± 0.78%
same,Myoglobin,[1]; Low Dose (15 mg),425.50 ± 318.91 ng/mL
same,Neutrophils,[1]; Low Dose (15 mg),60.05 ± 17.61%
same,Platelets,[1]; Low Dose (15 mg),329 ± 228 10³ cells/µL
same,Potassium,[1]; Low Dose (15 mg),4.75 ± 0.78 mmol/L
same,Red Blood Cells,[1]; Low Dose (15 mg),5.64 ± 0.05 10^6 cells/μL
same,Red Cell Distribution Width,[1]; Low Dose (15 mg),15.25 ± 0.78%
same,Sodium,[1]; Low Dose (15 mg),145.00 ± 5.66 mmol/L
same,Total Protein,[1]; Low Dose (15 mg),4.05 ± 0.07 g/dL
same,White Blood Cells,[1]; Low Dose (15 mg),24 ± 18.9 10³ cells/µL
same,BUN,"[1]; Low Dose (15 mg), adjusted p=0.03 versus control",29.00 ± 2.83 mg/dL
same,mortalities,[1]; high dose 50 mg,no mortalities
same,metabolic / lactic acidosis after burn,"[1]; high dose 50 mg, not statistically significant",may ameliorate metabolic acidosis; also recorded: may improve lactic acidosis
same,"effect on mortality, high dose versus low dose","[1]; high dose 50 mg, not versus control",significantly out-performing the low dose group
same,resuscitation fluid required,[1]; [3],no statistically significant differences; also recorded: did not appear to reduce resuscitation volumes
same,urine output generated,[1]; [3],no statistically significant differences; also recorded: did not appear to reduce resuscitation volumes or improve urine output
same,mortalities,[1]; low dose 15 mg,three
same,"time to mortality, low dose versus high dose","[1]; low dose 15 mg, p=0.044",significantly worse time to mortality
same,MAP,"[2]; 10 min after treatment, i.v. 1.24±0.07 mg/kg at 20 min after hemorrhage, vehicle 31.3±1.1, p=0.02",35.9±1.2 mmHg
same,MAP after whole blood resuscitation (FWB),"[2]; PHDi treated animals, FWB at 60 min",partial restoration of MAP
same,time to death,[2]; acute administration,extends the time to death
same,reduction in the elevation of lactate as compared with vehicle,[2]; at 60 min,about 30%
same,lactate after whole blood resuscitation,[2]; at 4 hr after transfusion,reduced lactate
same,60 min survivability,"[2]; n=13, vehicle 15%, p=0.03",62%
same,prothrombin time (PT),[2]; surviving animals at 60 min and 4 hours followed by whole blood resuscitation,significantly elevated
same,animals surviving for 4 hours after hemorrhage among those that received whole blood resuscitation,"[2]; vehicle 1 of 2, p=0.036",6 of 8
